{"source": "paper PMC10877564", "about": "“Activity of Gut-Derived Nisin-like Lantibiotics against Human Gut Pathogens and Commensals” (ACS Chemical Biology, 2024)", "assay_in_all_cases": "MIC assay, anaerobic broth dilution", "key": {"C. difficile VPI10463": {"tested_on": "C. difficile VPI10463", "assay_type": "cell-based, Clostridioides difficile", "settings": "BHIS, 37 °C, 48 h, 3-fold serial dilution", "text": "(§1) Next, we set out to test the antimicrobial activities of these purified lantibiotics against a panel of Gram-positive bacteria that are representatives of some of the most prevalent human pathogens: VRE, Methicillin-resistant S. aureus USA300 (MRSA), Methicillin-resistant Staphylococcus epidermidis SK135 (MRSE), Listeria monocytogenes 10403S, and Clostridioides difficile VPI10463. We examined the growth of bacteria in a 96-well plate under a concentration gradient of lantibiotics under anaerobic conditions (Figure S2B).\n(§2) Elution Buffer (4 M guanidine hydrochloride, 20 mM Tris HCl, pH 7.5 at 25 °C, 100 mM NaCl, 1 M imidazole). Peptides eluted from the Ni resin were concentrated and desalted using 3 kDa Amicon filters (Millipore). For leader peptide removal, the peptide (1:20 trypsin to peptide) was incubated with the trypsin protease in 50 mM Tris-HCl, pH 8 overnight at 37 °C. Lastly, the core peptides were further purified with HPLC using an Agilent 1200 instrument (Agilent) as specified […]\n(§3) in general methods. […]\nFor broth cultures, isolates were grown in pre-reduced BHI supplemented with 5 g/L yeast extract (Difco, BD) and 0.1% L-cysteine under anaerobic condition. […]\n(§4) All MIC assays were performed under anaerobic condition. […] Lantibiotics were dissolved in DPBS, and concentrations were determined by BCA assay (Pierce) according to the manufacturer’s protocol. […]"}, "F. fissicatena MSK.9.3": {"tested_on": "F. fissicatena MSK.9.3", "assay_type": "cell-based, Faecalicatena fissicatena", "settings": "BHIS, 37 °C, 48 h, 3-fold serial dilution", "text": "(§5) Antibiotic treatment may result in collateral damage to commensal bacteria in the human microbiome, leading to dysbiosis and susceptibility to various diseases.[44] How lantibiotics impact Gram-positive commensals from the human gut has remained unclear. Therefore, we performed antimicrobial activity tests of these lantibiotics against selected Gram-positive human gut commensals, most of which belong to the Lachnospiraceae family, one of the most abundant bacterial families in the human gut.[27] In general, human gut commensals were more susceptible to the set of investigated lantibiotics compared to pathogens (Figure 3).\nas §2, §3\nIsolation of human gut commensal bacteria […]\nas §4"}, "[1]": {"tested_on": "Coprococcus eutactus MSK.18.32", "assay_type": "cell-based", "settings": "Coprococcus eutactus MSK.18.32; anaerobic, BHIS, 37 °C, 48 h, 3-fold serial dilution", "text": "as §5\nas §2, with “specified in general methods. About 1.5 mg recombinant peptide was obtained after HPLC purification per” for “specified”\nas §4"}, "[2]": {"tested_on": "E. faecium ATCC700221 (VRE)", "assay_type": "cell-based, Enterococcus faecium", "settings": "BHIS, 37 °C, 48 h, 3-fold serial dilution", "text": "as §1, with “S2B). […]” for “S2B).”\nFor broth cultures, isolates were grown in pre-reduced BHI supplemented with 5 g/L yeast extract (Difco, BD) and 0.1% L-cysteine under anaerobic condition.\nMinimal Inhibition Concentration (MIC) assay\nAll MIC assays were performed under anaerobic condition. Stationary bacterial culture in BHIS (BHI supplemented with 5 g/L yeast extract and 0.1% L-cysteine) were inoculated 1:100 to wells containing 200 µL BHIS in U-bottom 96-well plates. Lantibiotics were dissolved in DPBS, and concentrations were determined by BCA assay (Pierce) according to the manufacturer’s protocol.\nLantibiotic stock solutions were added to wells to reach desired final concentration, with 3-fold serial dilution across rows to create concentration gradients. Bacteria-inoculated wells without lantibiotics served as control. […]"}}, "note": "Positions of bridges follow the written chain, without caps; N, C: chain ends. Non-standard residues stand in square brackets, D forms with d. No end group written: not given here. Abu = CC[C@H](N)C(=O)O; Dhb = C/C=C(\\N)C(=O)O; Dha = C=C(N)C(=O)O", "data": [{"substance": "nisin A (I[Dhb]AI[Dha]LC[Abu]PGCK[Abu]GALMGCNMK[Abu]A[Abu]CHCSIHV[Dha]K; thioether 8-11, 13-19, 23-26, 25-28, 3-7; UniProt P13068 24-57, looked up) [prototypical class I lantibiotic produced by L. lactis, food preservative; commercial nisin A]", "values": [{"measurement": "nisin A MIC", "setting": "C. difficile VPI10463", "result": 2.67, "unit": "µM"}, {"measurement": "nisin A MIC", "setting": "F. fissicatena MSK.9.3", "result": 0.0329, "unit": "µM"}, {"measurement": "nisin A MIC", "setting": "[1]", "result": 0.0110, "unit": "µM"}, {"measurement": "nisin A MIC", "setting": "[2]", "result": 1.48, "unit": "µM"}]}]}
